Reference: patent US8309570B2, “Treatment of central neuropathic pain” (Analgesic Neuropharmaceuticals, LLC, priority 2001, dated 2012)
“Also recorded” adds a separate entry of the source. Structures can show the parent of a compound that is named as a salt.

Columns and labels:
SCI pain [1] = conditions: acute parenteral administration; cited from earlier work
[2] = system: central neuropathic pain following traumatic spinal cord injury; experiment: Crossover trial: quality of life, Duke Health Profile; type: in vivo, human; conditions: for Pain domain, compared to placebo: combination p=0.002, dextromethorphan p=0.001, gabapentin p=0.03
Method: (§1) Secondary endpoints were assessed at a clinic visit on the final day of each treatment period, and included: 1) Global Pain Intensity (6-item categorical scale); 2) Global Pain Relief (6-item categorical scale); 3) pain intensity (Gracely Scale) of individual pain descriptors (burning pain; aching pain; tingling pain; cold pain; brief lancinating pain; deep stabbing pain; constricting pain; and touch-evoked pain (allodynia)); 4) areas of evoked pain: a) allodynia and b) pinprick-evoked hyperalgesia; 5) quality of life, assessed using the Duke Health Profile (Parkerson, G R, et al. Medical Care 28:1056-1069(1990)). 6) Patient Satisfaction (5-item categorical scale); 7) patients' assessment of best treatment. Allodynia was mapped by stroking the skin with the distal 5 mm of the corner of a 2×2 gauze sponge at standard pressure, at a rate of 1 cm/sec. Pinprick-evoked hyperalgesia was mapped using a standard safety pin that was pressed against the skin until dimpling was visible. Ambient temperature was maintained at 24 degrees centigrade. All mapping took place within a 30-minute period. The delineated areas of evoked pain were recorded using photographs of 4 views (anterior/posterior/right lateral/left lateral), which were scanned, and the areas of each of the 4 views were summed to determine the composite area.

[3] = system: central neuropathic pain following traumatic spinal cord injury; experiment: Randomized, double-blind, double-dummy, 2x2 factorial crossover trial: spontaneous pain, pain relief, patient satisfaction; type: in vivo, human; conditions: for patients choosing treatment as best pain relief / patients choosing treatment as best, balance between analgesia and side effects: at completion of the study, p=0.04; for SCI (spontaneous) pain compared to placebo: chronic oral administration; for overall patient satisfaction at the end of each treatment period, compared to placebo: dextromethorphan p<0.001, gabapentin p<0.01, combination p<0.001; for patients with at least moderate or better pain relief: of 18 patients, end of 5-week treatment
Method: Central neuropathic pain following traumatic spinal cord injury (SCI) may be severe and refractory to standard analgesics. Pharmacologic agents that target distinct pathophysiological pain mechanisms theoretically could provide pain relief for these patients. The analgesic efficacy of dextromethorphan and gabapentin in combination, dextromethorphan alone, gabapentin alone, and placebo, in patients with pain following SCI was evaluated in a randomized, double-blind, double-dummy, 2×2 factorial, Latin Square crossover trial, we evaluated the four treatments. Each treatment was titrated over 4 weeks and maintained at the individual's […] until the end of Week 5. Each treatment period was followed by a 1-week washout period or until pain returned to baseline. Primary efficacy measure was mean pain intensity during the 5-week treatment period, measured by the 20-point Gracely pain intensity scale.
Patients with 1) central neuropathic pain secondary to traumatic SCI in persons >18 years of age, 2) moderate pain for at least 50% of the day for at least 3 months, 3) concurrent use of no more than two analgesics at a stable dose (e.g. tricyclic antidepressants, anticonvulsants, nonsteroidal antiinflammatory drugs, or limited use of low-potency short-acting opioids), and 4) 100% compliance in rating their overall pain intensity 5-times daily in a diary for 1 week, were recruited nationwide between July 1997 and April 1999 using written announcements and by physician referrals.
(§2) All patients were followed as outpatients. Patients were randomly assigned to a sequence of the 4 treatments. Each of the 4 treatment periods consisted of 5 weeks. Each treatment period was separated by a 1-week washout period, with the requirement that pain return to baseline level. Dextromethorphan (Endo Inc., Neptune, N.J.; and its externally identical placebo) and gabapentin (Neurontin, Pfizer, Inc., Ann Arbor, Mich.; and its externally identical placebo) were dispensed using a double-dummy design; thus, the dextromethorphan:gabapentin dose-ratio was maintained at 1:5. Subjects started at 120 mg/day of dextromethorphan vs. placebo and 600 mg/day of gabapentin vs. placebo, and titrated according to a fixed schedule until they reached the ceiling doses equivalent to 600 mg/day of dextromethorphan or 3000 mg/day of gabapentin or their maximally tolerated dose (the dose just causing side effects, MTD). The titration regimen and the number of capsules per dose for each treatment were the same in each treatment group, in order to maintain double blinded conditions.
The primary endpoint was mean spontaneous pain intensity averaged weekly, from the start of study drug until the end of Week 5 for each treatment period and overall for the 5 weeks, assessed in a diary in which pain ratings were recorded 5-times daily, and evaluated with the 20-point Gracely pain scale based on 13 words (“faint” to “extremely intense”) (Gracely R H, et al. Pain 5:5-18(1978)).
as §1, with “Ambient temperature was maintained at 24 degrees centigrade. All mapping took place within a 30-minute period. The delineated areas of evoked pain were recorded using photographs of 4 views (anterior/posterior/right lateral/left lateral), which were scanned, and the areas of each of the 4 views were summed to determine the composite area.” left out

spinally injured rats = conditions: repeated doses; cited from earlier work
[4] = Crossover trial: titration to maximally tolerated dose (MTD); type: in vivo, human; conditions: drug alone; for mean dose during Week 5: after 4 weeks of titration to MTD; for maximum daily dose administered: titration to MTD
Source text: as §2

[5] = Crossover trial: adverse effects; type: in vivo, human; conditions: for confusion, proportion of patients / dizziness, proportion of patients / euphoria, proportion of patients / fatigue, proportion of patients / somnolence, proportion of patients / speech difficulty, proportion of patients / urinary incontinence, proportion of patients / urinary tract infection, proportion of patients: human, in vivo, oral, 5 weeks
Method: Presence and intensity (5-item categorical scale) of adverse effects were assessed continuously using an open question.

[6] = system: central neuropathic pain following traumatic spinal cord injury; experiment: Crossover trial: evoked pain (touch-evoked allodynia, pinprick-evoked hyperalgesia); type: in vivo, human; conditions: for intensity of touch-evoked allodynia, compared to placebo: 14 subjects with allodynia, dextromethorphan p=0.03, gabapentin p=0.01, combination p=0.001; for mean area of allodynia after treatment / mean area of allodynia, reduction from baseline: baseline 362±496 cm^2; for mean area of pinprick hyperalgesia after treatment / mean area of pinprick hyperalgesia, reduction from baseline: baseline 371±523 cm^2; for areas of pinprick hyperalgesia, difference: combination p=0.03, dextromethorphan p=0.02, gabapentin p=0.03
Method: as §1

SCI pain [7] = conditions: chronic oral agents; cited from earlier work
neuropathic pain = conditions: cited from earlier work

SMILES | Pain domain, compared to placebo [2] | patients choosing treatment as best pain relief [3] | patients choosing treatment as best, balance between analgesia and side effects [3] | overall patient satisfaction at the end of each treatment period, compared to placebo [3] | patients with at least moderate or better pain relief [3] | mean dose during Week 5 [4] | mean daily dose [4] | maximum daily dose administered [4] | confusion, proportion of patients [5] | dizziness, proportion of patients [5] | euphoria, proportion of patients [5] | fatigue, proportion of patients [5] | somnolence, proportion of patients [5] | speech difficulty, proportion of patients [5] | urinary incontinence, proportion of patients [5] | urinary tract infection, proportion of patients [5] | intensity of touch-evoked allodynia, compared to placebo [6] | mean area of allodynia after treatment [6] | mean area of allodynia, reduction from baseline [6] | mean area of pinprick hyperalgesia after treatment [6] | also measured
CNC1(c2ccccc2Cl)CCCCC1=O (centres unmarked) [ketamine] | – | – | – | – | – | – | – | – | – | – | – | – | – | – | – | – | – | – | – | – | spontaneous and evoked SCI pain (SCI pain [1]): reduced both spontaneous and evoked SCI pain
NCC1(CC(=O)O)CCCCC1 [gabapentin] | significantly better than placebo | 27.8% | 23.5% | significantly better | 39% | 2657 ± 155 mg/day | 2657 mg | 2717 ± 148 mg/day | 22% | 22% | 6% | 33% | 33% | 0% | 11% | 22% | significantly reduced | 106±231 cm^2 | 71% | 152±332 cm^2 | SCI (spontaneous) pain compared to placebo [3]: significant reduction; also recorded: superior to placebo; chronic hypersensitivity (spinally injured rats): alleviated chronic hypersensitivity; mean area of pinprick hyperalgesia, reduction from baseline [6]: 59%; areas of pinprick hyperalgesia, difference [6]: significant difference; area of allodynia, compared to placebo ([6]; combination p=0.05, gabapentin p=0.02): significant difference from placebo
O=c1n(CCCN2CCN(c3cccc(Cl)c3)CC2)nc2ccccn12 [trazodone] | – | – | – | – | – | – | – | – | – | – | – | – | – | – | – | – | – | – | – | – | results of randomized controlled trials in SCI pain (SCI pain [7]): negative
COc1ccc2c(c1)[C@]13CCCC[C@@H]1[C@H](C2)N(C)CC3 [dextromethorphan, dextromethorphan hydrobromide] | significantly better than placebo | 33.3% | 17.5% | significantly better | 50% | 416 ± 34 mg/day | 416 mg | 470 ± 29 mg/day | 33% | 67% | 24% | 52% | 62% | 10% | 5% | 38% | significantly reduced | 183±321 cm^2 | 49% | 122±287 cm^2 | Physical Health measure, compared to placebo ([2]; combination p=0.001, dextromethorphan p=0.02): significantly better than placebo; General Health measure, compared to placebo ([2]; combination p=0.01, dextromethorphan p=0.04): significantly better than placebo; SCI (spontaneous) pain compared to placebo ([3]; hydrobromide): significant reduction; also recorded: superior to placebo; intensity of burning pain, compared to placebo ([3]; combination p=0.005, dextromethorphan p=0.001): significant relief; brief paroxysms of lancinating pain, compared to placebo ([3]; combination p=0.03, dextromethorphan p=0.003): significant relief; analgesic effect in patients with neuropathic pain (neuropathic pain; dextromethorphan alone at 81 mg/day): inability; effect in patients with peripheral neuropathic pain (neuropathic pain; human, in vivo): marginal effect; proportion of patients with cognitive side effects, compared to either placebo or gabapentin ([5]; p<0.002): significantly larger proportion; proportion of patients with other side effects, compared to placebo ([5]; p=0.01): significantly larger proportion; mean area of pinprick hyperalgesia, reduction from baseline [6]: 67%; areas of pinprick hyperalgesia, difference [6]: significant difference
Cc1cccc(C)c1OCC(C)N (centres unmarked) [mexiletine] | – | – | – | – | – | – | – | – | – | – | – | – | – | – | – | – | – | – | – | – | results of randomized controlled trials in SCI pain (SCI pain [7]): negative
